Experimental data published in the SangsterLogP compilation.

Test: method code SF-GLC, from DOI: 10.1584/jpestics.5.553

logP | SMILES
3.38 | CCCOC(=O)C(C(=O)OCCC)=C1SCCS1
5.6 | CCCCCOC(=O)C(C(=O)OCCCCC)=C1SCCS1
3.38 | CSC(SC)=C(C(=O)OC(C)C)C(=O)OC(C)C
4.6 | CCCCOC(=O)C(C(=O)OCCCC)=C1SCCS1
1.6 | CC(C)OC(=O)C(C(=O)OC(C)C)=C1SCCS1=O (stereo not given)
2.9 | CCOC(=O)C(C(=O)OC(C)C)=C1SCCS1
2.45 | CCOC(=O)C(C(=O)OCC)=C1SCCS1
1.51 | COC(=O)C(C(=O)OC)=C1SCCS1
4.01 | CC(C)(C)OC(=O)C(C(=O)OC(C)(C)C)=C1SCCS1
7.6 | CCCCCCCOC(=O)C(C(=O)OCCCCCCC)=C1SCCS1
